Consider three compounds from patent publication US20190389958A1, “ANTI-CXCR4 ANTIBODIES” (MSM Protein Technologies, Inc., priority 2017, published 2019).

Assay [1] concerns RA1 cells. Kind of assay: Antibody-dependent cell-mediated cytotoxicity (ADCC), LDH release (Example 10). Conditions: E:T ratio 20:1. Type of assay: cell-based, human. The method, then:
ADCC was measured with RA1 cells as the target cells (T) and using the CytoTox 96® Non-Radioactive Cytotoxicity Assay (Promega Corp., Fitchburg, Wis.)), which assay measures lactate dehydrogenase (LDH) release. A round-bottom 96-well culture plate was set up with the following control and experimental wells (100 microliter final volumes):
a. RA1 cells (for target cell spontaneous LDH release control) b. RA1 cells (for target cell maximum LDH release control) c. Culture medium (RPMI 1640 Medium (1X) without phenol red) used for volume correction control d. Culture medium (for culture medium background control) e. RA1 plus effector cells (E) (for target plus effector cell spontaneous LDH release control) f. Experimental wells with effector and target cells (10^5) with serial dilutions of each test IgG or without test IgG.
The plates were centrifuged at 1600 rpm for 2 minutes and incubated at 37° C. for 4 hours. One hour prior to supernatant harvest, 20 microliters of Lysis Solution (10×) were added to the conditions b) and c). The plates were centrifuged at 1600 rpm for 2 minutes, and 50 microliters of the supernatant from each well of the assay plates were transferred to corresponding wells of a flat-bottom 96-well enzymatic assay plate. Substrate Mix (50 microliters) was added to each well of the latter plate, and the plate (protected from light) was incubated for 30 minutes at room temperature. Finally, 50 microliters of Stop Solution were added to each well, and absorbance (OD values) was measured at 490 nm. Each condition was tested in triplicates.
Preliminary experiments had been conducted in order to determine the optimal E:T ratio. The data shown below were obtained at a 20:1 E:T ratio with 10^5 RA1 target cells. The effector cells used in this study were prepared as follows: human peripheral blood mononuclear cells (PBMCs) obtained from a healthy donor were isolated by means of density gradient centrifugation using Lymphocyte Separation Medium (ref. J15-004, Invitrogen Corp., Carlsbad, Calif.). PBMCs at 2×10^6 per mL were cultured for two days in RPMI 1640 with 10% FCS, penicillin/streptomycin and 100 units per mL of human recombinant IL-2 (obtained from Roussel-Uclaf) in a 37° C. humidified incubator (5% CO2).
ADCC percentages obtained at different concentrations of test IgGs were calculated with the formula % ADCC=(f−e)/(b−a)×100, i.e., % ADCC=(OD of Target+Effector cells +/−Test Mab −OD of Spontaneous Release of Target+Effector cells)/(OD Maximal Release Target cells −OD Spontaneous Release of Target cells)×100.
(In general: LDH leaks from cells whose membrane has failed.)

Assay [2] concerns RA1 cells. Kind of assay: Anti-tumor activity in a SCID/RA1 xenograft model of Burkitt's lymphoma (Example 11). The format is in vivo, SCID mice. Conditions: for Mean Survival / Median Survival / Mice alive at the end of the study = day 81 / % Increased life span: 10 mg/kg, IV, Q4D × 6; for % Increased life span: ILS % = [(T-C)/C]×100 of median survival; for survival of mice (in words): SCID mice with RA1 cells. The method, then: The therapeutic effect of test antibodies was evaluated in an animal model of Burkitt's lymphoma. In the model used, systemic cancer in SCID mice causes hind limb paralysis and infiltrates all major organs.
Forty-eight hours before tumor cell injection, female SCID mice (7-9 weeks old, weighing 17-22 g) were irradiated with a γ-source (1.8 Gy, ^60Co). […] The tumor bearing mice were distributed on D4 into 10 groups of 10 mice each based on body weight using Vivo Manager® software (Biosystemes, Dijon, France). […] Treatment started on D4: mice were administered intravenously a 5 mg/kg or a 10 mg/kg dose of test antibody on days 4, 8, 12, 16, 20 and 24. The vehicle for injection was 10 mM Na-Citrate, 150 mM NaCl, 50 mM Arginine (pH 5.5). Body weights were measured and recorded twice weekly. Mean survival time was calculated for each group as the mean of the day of death, and median survival time was calculated for each group as the median of the day of death. The efficacy of each test antibody was judged by the increased life span value (ILS). ILS % was expressed as follows: ILS %=[(T-C)/C]×100. T was the median of the survival times of animals treated with each test antibody, and C was the median survival time of control animals treated with vehicle.

Assay [3] relates to Human U937 cells. Kind of assay: Inhibition of SDF-1alpha-induced chemotaxis/cell migration (Example 9). The format is cell-based. Conditions: U-937, SDF-1alpha 3 nM, AMD3100 1 μM. The method, then: Human U937 cells were grown in RPMI-1640 medium with 10% FCS, then washed twice and incubated in serum-free RPMI-1640 at 37° C. for 3 hours (5% CO2). Starved […] cells were re-suspended in medium for chemotaxis (RPMI-1640 with 0.3% BSA) at 3*10^5 cells per ml and • a) incubated for 30 min at room temperature (not-pre-treated positive control for assay); • b) pre-treated with AMD 3100 at 1 μM concentration (positive control for chemotaxis inhibition) for 30 min at room temperature; or • c) pre-treated with a test IgG at 100 nM concentration for 30 min at room temperature.
Respective not-pre-treated or pre-treated U937 cells were then placed into the top wells of a microchemotaxis chamber (15,000 cells per well).
A polycarbonate filter with a […] pore diameter separated top and bottom chambers.
After incubation for one hour at 37° C. (5% CO2), the cell suspensions were removed from the top wells, and the wells were washed once with PBS. […] The number of migrated cells in each well was determined using a Guava PCA-96 cytometer. […]
Maximal SDF-1 induced migration was calculated as the difference in the number of migrated cells between conditions (al) and (a) in the Table immediately above. The percentage of migration inhibition for a test antibody was then calculated by reference to this maximal migration.

Turning to “Rituximab: CD20 antibody Mabthera, used as positive control [reference compound]”, the ADCC percentage in assay [1] (0.0001 μg/mL) worked out at 3%. Moreover, the ADCC percentage in assay [1] (0.001 μg/mL) is reported as 8%. In assay [1] (0.01 μg/mL), the ADCC percentage was 27%. Further, the ADCC percentage in assay [1] (0.1 μg/mL) was found to be 46%. Moreover, in assay [1] (1 μg/mL), the ADCC percentage is recorded as 60%. Moreover, in assay [2], the “Mean Survival” value is recorded as 63 days, the “Median Survival” value came to 62 days, the “Mice alive at the end of the study = day 81” value is listed as 0/10 and the “% Increased life span” value worked out at 130%. Moreover, the “survival of mice (in words)” value in assay [2] was “lived significantly longer than control mice”.
As usually defined, the inhibition is the relative decrease from the control value, in per cent. `c1cc(CN2CCCNCCNCCCNCC2)ccc1CN1CCCNCCNCCCNCC1` [AMD3100]: the inhibition at 1 µM in assay [3] came to 98%.
With “Xolair: isotypic control [reference compound]”, in assay [2], the “Mean Survival” value is reported as 29 days, the “Median Survival” value is on record as 27 days, the “Mice alive at the end of the study = day 81” value is 0/10 and the “% Increased life span” value amounted to 0%. For the same compound, in assay [2], the “survival of mice (in words)” value is listed as “died of disseminated disease with severe weight loss or were terminated because they were moribund within four weeks”.
